One experiment has as its target T1, IK1 (Kir2.1) (Rattus norvegicus, UniProt Q64273).
T1 construct: endogenous in cells; host or cells: rat ventricular cardiomyocytes (RVCMs)
T1 sequence (Q64273 1-427): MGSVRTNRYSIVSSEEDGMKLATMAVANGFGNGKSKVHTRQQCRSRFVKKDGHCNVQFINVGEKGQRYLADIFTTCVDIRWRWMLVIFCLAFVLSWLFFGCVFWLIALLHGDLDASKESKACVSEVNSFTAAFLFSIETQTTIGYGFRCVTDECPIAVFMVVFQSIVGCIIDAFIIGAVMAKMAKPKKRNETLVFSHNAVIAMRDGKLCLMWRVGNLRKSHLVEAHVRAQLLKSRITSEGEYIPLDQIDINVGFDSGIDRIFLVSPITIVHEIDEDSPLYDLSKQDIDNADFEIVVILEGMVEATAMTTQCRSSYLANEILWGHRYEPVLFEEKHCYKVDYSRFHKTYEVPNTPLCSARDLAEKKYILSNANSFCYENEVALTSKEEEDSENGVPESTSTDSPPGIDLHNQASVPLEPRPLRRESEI
The following applies: diC8-PI(4,5)P2 in recording pipette, concentration dependent; RVCMs, 2% O2; cited from earlier work.

The target of the next experiment is T2, WT-Nav1.5 (Homo sapiens, UniProt Q14524).
T2 construct: expressed in transfected cells; host or cells: HEK293T
T2 sequence (Q14524 whole entry): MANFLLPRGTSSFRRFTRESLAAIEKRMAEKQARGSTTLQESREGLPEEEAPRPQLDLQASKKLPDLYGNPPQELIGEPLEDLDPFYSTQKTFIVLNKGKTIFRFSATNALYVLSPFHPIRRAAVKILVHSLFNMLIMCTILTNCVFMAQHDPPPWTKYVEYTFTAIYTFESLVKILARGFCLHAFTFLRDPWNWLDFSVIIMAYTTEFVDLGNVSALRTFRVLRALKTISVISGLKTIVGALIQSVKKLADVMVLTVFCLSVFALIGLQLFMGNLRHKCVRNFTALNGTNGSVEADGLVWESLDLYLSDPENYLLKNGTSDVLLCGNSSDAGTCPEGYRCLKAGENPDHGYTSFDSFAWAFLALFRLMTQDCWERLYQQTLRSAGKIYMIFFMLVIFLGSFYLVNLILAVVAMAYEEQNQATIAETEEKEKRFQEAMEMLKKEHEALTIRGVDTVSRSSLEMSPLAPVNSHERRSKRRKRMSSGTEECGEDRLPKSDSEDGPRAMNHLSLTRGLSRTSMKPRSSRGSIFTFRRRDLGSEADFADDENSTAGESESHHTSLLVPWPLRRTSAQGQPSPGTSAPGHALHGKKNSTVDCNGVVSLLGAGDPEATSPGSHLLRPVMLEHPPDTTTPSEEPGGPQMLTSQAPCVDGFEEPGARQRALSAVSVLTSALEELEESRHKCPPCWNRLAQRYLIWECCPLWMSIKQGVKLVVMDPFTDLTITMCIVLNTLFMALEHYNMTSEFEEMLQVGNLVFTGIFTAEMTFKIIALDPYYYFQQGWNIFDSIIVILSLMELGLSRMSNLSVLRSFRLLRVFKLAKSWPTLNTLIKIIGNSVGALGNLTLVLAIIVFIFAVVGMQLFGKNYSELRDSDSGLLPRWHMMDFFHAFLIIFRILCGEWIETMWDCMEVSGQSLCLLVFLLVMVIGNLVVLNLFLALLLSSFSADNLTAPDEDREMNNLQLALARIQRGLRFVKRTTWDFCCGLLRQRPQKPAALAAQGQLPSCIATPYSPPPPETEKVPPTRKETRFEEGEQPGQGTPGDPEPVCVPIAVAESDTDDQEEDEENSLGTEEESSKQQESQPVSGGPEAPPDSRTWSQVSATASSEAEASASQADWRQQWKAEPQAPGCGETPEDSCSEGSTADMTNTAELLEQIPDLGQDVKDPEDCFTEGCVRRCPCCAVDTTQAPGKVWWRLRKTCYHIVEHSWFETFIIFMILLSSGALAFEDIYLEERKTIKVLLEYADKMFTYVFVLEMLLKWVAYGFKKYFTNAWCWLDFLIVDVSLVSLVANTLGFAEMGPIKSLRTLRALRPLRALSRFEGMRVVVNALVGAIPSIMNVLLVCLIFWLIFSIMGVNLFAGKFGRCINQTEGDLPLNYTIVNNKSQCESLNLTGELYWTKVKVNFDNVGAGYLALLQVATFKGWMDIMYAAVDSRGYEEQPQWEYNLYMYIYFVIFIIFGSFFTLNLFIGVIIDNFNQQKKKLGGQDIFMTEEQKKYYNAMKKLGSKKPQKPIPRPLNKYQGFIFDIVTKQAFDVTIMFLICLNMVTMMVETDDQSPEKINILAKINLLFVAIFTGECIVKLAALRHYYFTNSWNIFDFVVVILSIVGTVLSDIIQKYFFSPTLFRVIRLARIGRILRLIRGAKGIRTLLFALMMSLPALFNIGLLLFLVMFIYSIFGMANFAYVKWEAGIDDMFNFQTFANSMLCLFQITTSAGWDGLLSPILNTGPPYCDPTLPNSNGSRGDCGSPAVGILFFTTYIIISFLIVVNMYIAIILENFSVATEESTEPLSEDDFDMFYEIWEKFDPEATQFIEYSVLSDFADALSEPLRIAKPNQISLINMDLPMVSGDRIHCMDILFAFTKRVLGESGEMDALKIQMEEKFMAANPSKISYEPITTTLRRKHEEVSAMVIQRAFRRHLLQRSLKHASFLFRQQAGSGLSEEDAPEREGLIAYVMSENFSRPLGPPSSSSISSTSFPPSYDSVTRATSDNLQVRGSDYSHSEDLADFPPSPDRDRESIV
In words: Whole-cell patch-clamp ILATE of wild type Nav1.5 in HEK293T cells with CRY2-5POCRL. It is filed as cell-based. The note with it: diC8-PIP2 in pipette. As to the method: This is opposed when by 200 μM diC8-PIP2 in the pipette. Comparisons are Students t-test, *** P<0.01, ****P0.001 for 4-6 cells per group.
Results. Our studies were designed to evaluate PIP2-regulation for Nav1.5 channelopathies from multiple perspectives. Given that there is a lack of structural data to identify where, or how many PIP2 molecules bind to Nav1.5, we performed a docking simulation to identify putative PIP2 binding sites in the open, rat and human Nav1.5 cryoEM structures (PDB: 6UZ3 and 7DTC) (56-58). We observed four potential PIP2 binding sites at the boundary between the inner leaflet of the membrane and the cytoplasm with one at the interface between each voltage sensor and the channel body. In each case, we noted electrostatic and hydrogen bond interactions between the headgroup of PIP2 and multiple disease associated residues. Among these, we elected to perform functional studies on Nav1.5-R1644C, an LQT3 mutant located between the S4 and S5 transmembrane segments of DIV. We expressed wild type Nav1.5 or Nav1.5-R1644C with Nav1β, CIBN-CAAX and CRY2-5POCRL in HEK293T cells and studied ILATE with and without optogenetic dephosphorylation of PIP2. In wild-type Nav1.5, ILATE was 0.25±0.1% of the peak (n=8) whereas in Nav1.5-R1664C, ILATE was 1.2±0.2% of peak (n=8, P<0.01, unpaired t-test comparison to WT). […]

Consider `CCCCCCCC(=O)OC[C@H](COP(=O)(O)O[C@@H]1[C@H](O)[C@H](O)[C@@H](OP(=O)(O)O)[C@H](OP(=O)(O)O)[C@H]1O)OC(=O)CCCCCCC` [diC8-PIP2], for which the “effect on hypoxic inhibition of IK1” value on IK1 (Kir2.1) is “opposed”. For the same molecule, at WT-Nav1.5, the “effect on ILATE increase when PIP2 is dephosphorylated” value is reported as “opposed”.

The values above are taken from patent US20240358727A1, “MICROSCALE THERMOPHORESIS TO EVALUATE CHANNEL LIPID INTERACTIONS AND METHODS OF TREATING NAV CHANNELS RELATED DISEASES” (Northeastern University, priority 2023, published 2024).
